Inconclusive results and toxic doses are left out. Cut-off read from the data, not from the text of the source: active = T/C of 150% or more; inactive = T/C below 125%.
Test system: L1210 leukemia ip in BDF1 mice, survival T/C
Assay: NCI In Vivo Anticancer Drug Screen. Data for tumor model L1210 Leukemia (intraperitoneal) in B6D2F1 (BDF1) mice
Conditions: endpoint: mean survival time, higher = longer survival
Outline: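 Transplantable tumor model; survival measured in treated vs vehicle control mice. Value = treated/control.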

[1] = dose: 50.0 mg/kg/injection, schedule: Q01DX001 (ip), vehicle: saline
[2] = dose: 100.0 mg/kg/injection, schedule: Q01DX001 (ip), vehicle: saline
[3] = dose: 200.0 mg/kg/injection, schedule: Q01DX001 (ip), vehicle: saline
[4] = dose: 400.0 mg/kg/injection, schedule: Q01DX001 (ip), vehicle: saline
[5] = dose: 100.0 mg/kg/injection, schedule: Q04DX003 (ip), vehicle: saline
[6] = dose: 200.0 mg/kg/injection, schedule: Q04DX003 (ip), vehicle: saline
[7] = dose: 400.0 mg/kg/injection, schedule: Q04DX003 (ip), vehicle: saline
[8] = dose: 75.0 mg/kg/injection, schedule: Q01DX001 (ip), vehicle: saline
[9] = dose: 150.0 mg/kg/injection, schedule: Q01DX001 (ip), vehicle: saline
[10] = dose: 100.0 mg/kg/injection, schedule: Q04DX003 (ip), vehicle: saline with Tween-80
[11] = dose: 200.0 mg/kg/injection, schedule: Q04DX003 (ip), vehicle: saline with Tween-80
[12] = dose: 400.0 mg/kg/injection, schedule: Q04DX003 (ip), vehicle: saline with Tween-80

Measured: T/C

CC(=O)c1ccc(N2CCCCC2)cc1
inactive: [1] 96 % of control | [2] 94 % of control | [3] 100 % of control | [4] 94 % of control

COc1cc2c(c3oc4c(c(=O)c13)CCCC4)CCC(C)(C)O2
inactive: [5] 91 % of control | [6] 94 % of control | [7] 94 % of control

Cc1cc([N+](=O)[O-])c(C)cc1O
inactive: [8] 91 % of control | [9] 94 % of control

N=C(OC1CCCCC1)N(Cc1ccccc1)Cc1ccccc1
inactive: dose: 44.0 mg/kg/injection, schedule: Q01DX Z (ip), vehicle: methylcellulose (MC) 104 % of control | dose: 66.0 mg/kg/injection, schedule: Q01DX Z (ip), vehicle: methylcellulose (MC) 104 % of control | dose: 100.0 mg/kg/injection, schedule: Q01DX Z (ip), vehicle: methylcellulose (MC) 117 % of control

O=C(Nc1ccc(S(=O)(=O)O)cc1)c1ccc([N+](=O)[O-])cc1
inactive: [1] 92 % of control | [2] 103 % of control | dose: 100.0 mg/kg/injection, schedule: Q01DX009 (ip), vehicle: saline 95 % of control | [5] 100 % of control | [3] 97 % of control | dose: 200.0 mg/kg/injection, schedule: Q01DX009 (ip), vehicle: saline 102 % of control | [6] 91 % of control | [4] 97 % of control | dose: 400.0 mg/kg/injection, schedule: Q01DX009 (ip), vehicle: saline 100 % of control | [7] 100 % of control

Nc1ncnc2c1ncn2C1COC(CO)C1O (stereo not given)
inactive: [2] 103 % of control | [3] 107 % of control | [4] 107 % of control

COC(=O)c1cc(C)cc(Oc2ccccc2N)c1C
inactive: [2] 88 % of control | [3] 102 % of control | [4] 93 % of control

O=C1c2cc(F)ccc2-c2cccc(F)c21
inactive: dose: 50.0 mg/kg/injection, schedule: Q01DX001 (ip), vehicle: carboxymethylcellulose (CMC) 102 % of control | dose: 100.0 mg/kg/injection, schedule: Q01DX001 (ip), vehicle: carboxymethylcellulose (CMC) 108 % of control | dose: 200.0 mg/kg/injection, schedule: Q01DX001 (ip), vehicle: carboxymethylcellulose (CMC) 104 % of control | dose: 400.0 mg/kg/injection, schedule: Q01DX001 (ip), vehicle: carboxymethylcellulose (CMC) 98 % of control

COc1ccc2ncccc2c1
inactive: dose: 100.0 mg/kg/injection, schedule: Q04DX002 (ip), vehicle: saline 111 % of control | dose: 200.0 mg/kg/injection, schedule: Q04DX002 (ip), vehicle: saline 101 % of control | dose: 400.0 mg/kg/injection, schedule: Q04DX002 (ip), vehicle: saline 104 % of control

O=C(O)c1n[nH]nc1[N+](=O)[O-]
inactive: [8] 96 % of control | [9] 105 % of control | dose: 300.0 mg/kg/injection, schedule: Q01DX001 (ip), vehicle: saline 98 % of control

COC(CCCl)c1ccccc1 (stereo not given)
inactive: dose: 100.0 mg/kg/injection, schedule: Q01DX009 (ip), vehicle: saline with Tween-80 101 % of control | [10] 100 % of control | dose: 200.0 mg/kg/injection, schedule: Q01DX009 (ip), vehicle: saline with Tween-80 100 % of control | [11] 96 % of control | [12] 91 % of control

CCCCN(CCCC)CC(=O)Nc1ccc(C(=O)OCC(C)C)cc1
inactive: dose: 20.0 mg/kg/injection, schedule: Q01DX Z (ip), vehicle: saline 97 % of control | dose: 30.0 mg/kg/injection, schedule: Q01DX Z (ip), vehicle: saline 98 % of control | dose: 45.0 mg/kg/injection, schedule: Q01DX Z (ip), vehicle: saline 106 % of control | dose: 68.0 mg/kg/injection, schedule: Q01DX Z (ip), vehicle: saline 97 % of control

O=C1C(=O)C(c2ccccc2)(c2ccccc2)c2cc(-c3ccccc3)c(-c3ccccc3)cc21
inactive: [11] 93 % of control

CN(C)C1(C(=O)O)c2ccccc2-c2ccccc21
inactive: [1] 100 % of control | [2] 100 % of control | [3] 97 % of control

CN1CNC(C=O)(CCc2ccc(Cl)cc2)C1 (stereo not given)
inactive: dose: 200.0 mg/kg/injection, schedule: Q01DX001 (ip), vehicle: other 87 % of control | dose: 400.0 mg/kg/injection, schedule: Q01DX001 (ip), vehicle: other 98 % of control

CCCCCCCCCCCCCCCCCCc1ccc(O)cc1O
inactive: [10] 89 % of control | [11] 92 % of control | [12] 86 % of control

O=[N+]([O-])c1ccc([N+](=O)[O-])c(Cl)c1
inactive: dose: 50.0 mg/kg/injection, schedule: Q01DX009 (ip), vehicle: Klucel (hydroxypropylcellulose) (HPC) 101 % of control | dose: 100.0 mg/kg/injection, schedule: Q01DX009 (ip), vehicle: Klucel (hydroxypropylcellulose) (HPC) 95 % of control | [10] 97 % of control | [11] 86 % of control

From PubChem BioAssay AID248 (DTP/NCI, 2004)
